What all share (assay type): in vivo
The subject of one series is Scirpus juncoides. In words: Test Example 1: herbicidal activity, application before weed generation in submerged conditions (symbol B). To be noted: application herbicide amount 320 g/ha. A digest of the protocol:
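Weed control was rated three weeks after treatment on a 0–5 scale, from 5% or lower up to 90% or more. Pre-emergence water-surface application of diluted emulsion at a predetermined rate was made on the day of sowing, in flooded (4 cm water) pots containing rice seedlings, kept at 25–30 °C under glass.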

A further series deals with Cyperus difformis. In words: Test Example 3: herbicidal effect by foliage application, Wagner pot (symbol E). Conditions: application herbicide amount 320 g/ha. A digest of the protocol:
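The compound, formulated as an emulsion and diluted with water to a predetermined rate, is applied uniformly to leaves of two-week-old seedlings growing in submerged alluvial soil at 25–30 °C. Rice is included. Each plant is assessed 3 weeks later using defined criteria.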

A further series has as its system Alopecurus myosuroides. Briefly: Test Example 4: herbicidal effect by soil treatment (symbol J). A digest of the protocol: (§1)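 Seeds were sown in sterilized diluvial soil, covered with about 1.5 cm of soil, and the soil surface was sprayed with a water-diluted emulsion of the compound at a predetermined rate. Plants grew in a greenhouse at 25° C. to 30° C.; effects were scored visually 3 weeks after application.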

Series [1] relates to Abutilon theophrasti. In words: Test Example 4: herbicidal effect by soil treatment (symbol M). A digest of the protocol:
as §1

The next series concerns corn. In words: Test Example 4: effect on crop by soil treatment (symbol c). Conditions: for c: corn, effect grade on crop: 320 g/ha; for c: corn, effect on crop grade / c (corn) effect on crop grade: application herbicide amount 320 g/ha. A digest of the protocol:
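Soil-treatment setup: crop and weed seeds were spot-sown into sterilized diluvial soil, then buried beneath approximately 1.5 cm of it, and the boxes were housed in a 25–30° C. greenhouse.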

Another series has as its system Digitaria ciliaris. In words: Test Example 5: herbicidal effect by foliage application, plastic box (symbol F). To be noted: 320 g/ha, 3 weeks after application. A digest of the protocol:
(§2)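 Greenhouse foliar test: seedlings at 14 days, grown 25° C. to 30° C. in sterilized diluvial soil; compound applied as an aqueous dilution of an emulsion; response read 3 weeks after spraying.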

Series [2] concerns Abutilon theophrasti. Briefly: Test Example 5: herbicidal effect by foliage application, plastic box (symbol M). To be noted: 320 g/ha, 3 weeks after application. An outline of the steps:
as §2

For another series, the system named is Amaranthus retroflexus. Briefly: Test Example 5: herbicidal effect by foliage application, plastic box (symbol N). To be noted: 320 g/ha, 3 weeks after application. An outline of the steps: as §2
For a further series, the system named is Galium spurium. In words: Test Example 5: herbicidal effect by foliage application, plastic box (symbol Q). Conditions: 320 g/ha, 3 weeks after application. A digest of the protocol: as §2
Where [3] appears, read: application herbicide amount 320 g/ha.

`CON=C(C)CC1CC(OC(=O)c2ccccc2C(F)(F)F)=C(c2c(C)cc(C)cc2C)C1=O` (stereo not drawn) [1-154]: in the series with Scirpus juncoides, the “Herbicidal effect grade, B: Scirpus juncoides” value (“Herbicidal effect grade, B” below) was 4 (Herbicidal ratio of 70% or higher and lower than 90%). The “herbicidal effect on E, grade 0-5” value in the series on Cyperus difformis is 5 (Herbicidal ratio of 90% or more (almost completely withered)). In addition, the “J: Alopecurus myosuroides, herbicidal effect grade” value (“J: Alopecurus myosuroides” below) with Alopecurus myosuroides (320 g/ha) is recorded as 5 (Herbicidal ratio of 90% or more (almost completely withered)). In the series on Abutilon theophrasti [1] (320 g/ha), the “M: Abutilon theophrasti, herbicidal effect grade” value is 4 (Herbicidal ratio of 70% or higher and lower than 90%). In addition, in the series with corn, the “c: corn, effect grade on crop” value is 0 (Herbicidal ratio of 5% or lower (almost no effect)). Also, in the series on Digitaria ciliaris, the “F: Digitaria ciliaris, herbicidal effect (criteria 0-5)” value is on record as 5 (Herbicidal ratio of 90% or more (almost completely withered)). Besides, the “M: Abutilon theophrasti, herbicidal effect (criteria 0-5)” value in the series on Abutilon theophrasti [2] was 4 (Herbicidal ratio of 70% or higher and lower than 90%). For the same molecule, in the series on Amaranthus retroflexus, the “N: Amaranthus retroflexus, herbicidal effect (criteria 0-5)” value is 3 (Herbicidal ratio of 40% or higher and lower than 70%). Besides, in the series with Galium spurium, the “Q: Galium spurium, herbicidal effect (criteria 0-5)” value is 3 (Herbicidal ratio of 40% or higher and lower than 70%).
Turning to `CCc1cc(-n2cc(Cl)cn2)cc(C)c1C1=C(O)CC(CC(C)=NOC)C1=O` (mixture of isomers) [6-005], in the series with Scirpus juncoides, the “Herbicidal effect grade, B” value was 5 (Herbicidal ratio of 90% or more (almost completely withered)). The “herbicidal effect on E, grade 0-5” value in the series with Cyperus difformis is 3 (Herbicidal ratio of 40% or higher and lower than 70%). The “J: Alopecurus myosuroides” value in the series with Alopecurus myosuroides (setting [3]) is on record as 5 (Herbicidal ratio of 90% or more (almost completely withered)). Further, the “M: Abutilon theophrasti, herbicidal effect grade” value in the series on Abutilon theophrasti [1] (setting [3]) is 0 (Herbicidal ratio of 5% or lower (almost no effect)); in the series on Abutilon theophrasti [2] it was 5 (Herbicidal ratio of 90% or more (almost completely withered)). Besides, in the series with corn, the “c: corn, effect on crop grade” value is 3 (Herbicidal ratio of 40% or higher and lower than 70%). In the series on Digitaria ciliaris, the “F: Digitaria ciliaris, herbicidal effect grade” value is given as 5 (Herbicidal ratio of 90% or more (almost completely withered)). Moreover, the “N: Amaranthus retroflexus, herbicidal effect grade” value in the series with Amaranthus retroflexus was 4 (Herbicidal ratio of 70% or higher and lower than 90%). Further, the “Q: Galium spurium, herbicidal effect grade” value with Galium spurium is 3 (Herbicidal ratio of 40% or higher and lower than 70%).
Consider `CON=C(C)CC1CC(OC(=O)c2ccc(S(C)(=O)=O)c(C(=O)OC)c2Cl)=C(c2c(C)cc(C)cc2C)C1=O` (stereo not drawn) [1-162], for which the “Herbicidal effect grade, B” value in the series with Scirpus juncoides is 4 (Herbicidal ratio of 70% or higher and lower than 90%). The “herbicidal effect on E, grade 0-5” value in the series on Cyperus difformis is on record as 5 (Herbicidal ratio of 90% or more (almost completely withered)). Moreover, in the series with Alopecurus myosuroides (320 g/ha), the “J: Alopecurus myosuroides” value is 5 (Herbicidal ratio of 90% or more (almost completely withered)). The “M: Abutilon theophrasti, herbicidal effect grade” value with Abutilon theophrasti [1] (320 g/ha) is 5 (Herbicidal ratio of 90% or more (almost completely withered)); with Abutilon theophrasti [2], 4 (Herbicidal ratio of 70% or higher and lower than 90%). In addition, the “c: corn, effect grade on crop” value in the series on corn is 2 (Herbicidal ratio of 20% or higher and lower than 40%). In the series with Digitaria ciliaris, the “F: Digitaria ciliaris, herbicidal effect grade” value is recorded as 5 (Herbicidal ratio of 90% or more (almost completely withered)). For the same molecule, the “N: Amaranthus retroflexus, herbicidal effect grade” value in the series with Amaranthus retroflexus was 1 (Herbicidal ratio of 5% or higher and lower than 20%). In the series with Galium spurium, the “Q: Galium spurium, herbicidal effect grade” value is 4 (Herbicidal ratio of 70% or higher and lower than 90%).
Take `Cc1cc(C)c(C2=C(O)CC(CC(=O)C3CCCC3)C2=O)c(C)c1` (stereo not drawn) [2-028]: the “Herbicidal effect grade, B” value in the series on Scirpus juncoides was 0 (Herbicidal ratio of 5% or lower (almost no effect)). Moreover, the “herbicidal effect on E, grade 0-5” value in the series with Cyperus difformis is 4 (Herbicidal ratio of 70% or higher and lower than 90%). Moreover, in the series on Alopecurus myosuroides (setting [3]), the “J: Alopecurus myosuroides” value was 3 (Herbicidal ratio of 40% or higher and lower than 70%). The “M: Abutilon theophrasti, herbicidal effect grade” value with Abutilon theophrasti [1] (setting [3]) was 1 (Herbicidal ratio of 5% or higher and lower than 20%); in the series on Abutilon theophrasti [2], 0 (Herbicidal ratio of 5% or lower (almost no effect)). Besides, the “c: corn, effect on crop grade” value in the series with corn is 2 (Herbicidal ratio of 20% or higher and lower than 40%). Moreover, in the series on Digitaria ciliaris, the “F: Digitaria ciliaris, herbicidal effect grade” value was 2 (Herbicidal ratio of 20% or higher and lower than 40%). In the series on Amaranthus retroflexus, the “N: Amaranthus retroflexus, herbicidal effect grade” value is 0 (Herbicidal ratio of 5% or lower (almost no effect)). In the series with Galium spurium, the “Q: Galium spurium, herbicidal effect grade” value is 0 (Herbicidal ratio of 5% or lower (almost no effect)).
For `CC#Cc1cc(C)c(C2=C(O)CC(CC(C)=NOC)C2=O)c(C)c1` (mixture of isomers) [6-009], the “Herbicidal effect grade, B” value in the series with Scirpus juncoides is 2 (Herbicidal ratio of 20% or higher and lower than 40%). In the series on Cyperus difformis, the “herbicidal effect on E, grade 0-5” value is listed as 0 (Herbicidal ratio of 5% or lower (almost no effect)). Besides, the “J: Alopecurus myosuroides” value in the series on Alopecurus myosuroides (setting [3]) is reported as 5 (Herbicidal ratio of 90% or more (almost completely withered)). In addition, the “M: Abutilon theophrasti, herbicidal effect grade” value in the series with Abutilon theophrasti [1] (setting [3]) is 5 (Herbicidal ratio of 90% or more (almost completely withered)); with Abutilon theophrasti [2] it was 3 (Herbicidal ratio of 40% or higher and lower than 70%). Further, the “c: corn, effect on crop grade” value with corn is reported as 5 (Herbicidal ratio of 90% or more (almost completely withered)). In the series on Digitaria ciliaris, the “F: Digitaria ciliaris, herbicidal effect grade” value is on record as 5 (Herbicidal ratio of 90% or more (almost completely withered)). Further, in the series on Amaranthus retroflexus, the “N: Amaranthus retroflexus, herbicidal effect grade” value is given as 0 (Herbicidal ratio of 5% or lower (almost no effect)). Moreover, the “Q: Galium spurium, herbicidal effect grade” value in the series on Galium spurium was 0 (Herbicidal ratio of 5% or lower (almost no effect)).
In the case of `CON=C(C)CC1CC(OCC(=O)OC)=C(c2c(C)cc(C)cc2C)C1=O` (stereo not drawn) [1-012], the “Herbicidal effect grade, B” value in the series with Scirpus juncoides is listed as 0 (Herbicidal ratio of 5% or lower (almost no effect)). Further, the “herbicidal effect on E, grade 0-5” value in the series with Cyperus difformis is 0 (Herbicidal ratio of 5% or lower (almost no effect)). For the same molecule, the “J (Alopecurus myosuroides) herbicidal effect grade” value in the series with Alopecurus myosuroides (setting [3]) is recorded as 0 (Herbicidal ratio of 5% or lower (almost no effect)). For the same molecule, in the series on Abutilon theophrasti [1] (setting [3]), the “M (Abutilon theophrasti) herbicidal effect grade” value is 0 (Herbicidal ratio of 5% or lower (almost no effect)). For the same molecule, the “c (corn) effect on crop grade” value in the series with corn is given as 0 (Herbicidal ratio of 5% or lower (almost no effect)). Besides, the “F: Digitaria ciliaris, herbicidal effect grade” value in the series with Digitaria ciliaris was 0 (Herbicidal ratio of 5% or lower (almost no effect)). Moreover, the “M: Abutilon theophrasti, herbicidal effect grade” value with Abutilon theophrasti [2] is reported as 0 (Herbicidal ratio of 5% or lower (almost no effect)). Also, in the series on Amaranthus retroflexus, the “N: Amaranthus retroflexus, herbicidal effect grade” value was 0 (Herbicidal ratio of 5% or lower (almost no effect)). For the same molecule, the “Q: Galium spurium, herbicidal effect grade” value with Galium spurium is given as 0 (Herbicidal ratio of 5% or lower (almost no effect)).
`CON=C(C)CC1CC(OC(=O)N2CCN(C)CC2)=C(c2c(C)cc(C)cc2C)C1=O` (stereo not drawn) [1-152]: in the series on Scirpus juncoides, the “Herbicidal effect grade, B” value is recorded as 0 (Herbicidal ratio of 5% or lower (almost no effect)). In addition, the “herbicidal effect on E, grade 0-5” value with Cyperus difformis is given as 5 (Herbicidal ratio of 90% or more (almost completely withered)). Moreover, in the series with Alopecurus myosuroides (320 g/ha), the “J: Alopecurus myosuroides” value is 3 (Herbicidal ratio of 40% or higher and lower than 70%). In addition, the “M: Abutilon theophrasti, herbicidal effect grade” value with Abutilon theophrasti [1] (320 g/ha) was 0 (Herbicidal ratio of 5% or lower (almost no effect)). Also, the “c: corn, effect grade on crop” value in the series with corn is on record as 0 (Herbicidal ratio of 5% or lower (almost no effect)). Further, the “F: Digitaria ciliaris, herbicidal effect (criteria 0-5)” value with Digitaria ciliaris is 5 (Herbicidal ratio of 90% or more (almost completely withered)). Also, in the series on Abutilon theophrasti [2], the “M: Abutilon theophrasti, herbicidal effect (criteria 0-5)” value is 4 (Herbicidal ratio of 70% or higher and lower than 90%). Moreover, the “N: Amaranthus retroflexus, herbicidal effect (criteria 0-5)” value in the series with Amaranthus retroflexus is 3 (Herbicidal ratio of 40% or higher and lower than 70%). The “Q: Galium spurium, herbicidal effect (criteria 0-5)” value in the series on Galium spurium is given as 0 (Herbicidal ratio of 5% or lower (almost no effect)).
Turning to `CON=C(C)CC1CC(OC(=O)c2ccccc2)=C(c2c(C)cc(C)cc2C)C1=O` (stereo not drawn) [1-010], in the series with Scirpus juncoides, the “Herbicidal effect grade, B” value was 5 (Herbicidal ratio of 90% or more (almost completely withered)). For the same molecule, the “herbicidal effect on E, grade 0-5” value with Cyperus difformis is 5 (Herbicidal ratio of 90% or more (almost completely withered)). In addition, in the series with Alopecurus myosuroides (setting [3]), the “J (Alopecurus myosuroides) herbicidal effect grade” value is listed as 5 (Herbicidal ratio of 90% or more (almost completely withered)). Besides, the “M (Abutilon theophrasti) herbicidal effect grade” value with Abutilon theophrasti [1] (setting [3]) is listed as 5 (Herbicidal ratio of 90% or more (almost completely withered)). In the series with corn, the “c (corn) effect on crop grade” value is 4 (Herbicidal ratio of 70% or higher and lower than 90%). Moreover, in the series with Digitaria ciliaris, the “F: Digitaria ciliaris, herbicidal effect grade” value is 5 (Herbicidal ratio of 90% or more (almost completely withered)). Also, the “M: Abutilon theophrasti, herbicidal effect grade” value with Abutilon theophrasti [2] is 4 (Herbicidal ratio of 70% or higher and lower than 90%). The “N: Amaranthus retroflexus, herbicidal effect grade” value in the series on Amaranthus retroflexus is 4 (Herbicidal ratio of 70% or higher and lower than 90%). In the series with Galium spurium, the “Q: Galium spurium, herbicidal effect grade” value is 4 (Herbicidal ratio of 70% or higher and lower than 90%).

Values taken from US11000033B2, “Ketone or oxime compound, and herbicide” (NISSAN CHEMICAL CORPORATION, priority 2014, dated 2021).
